Assay results as given in the Kinase Knowledgebase extract (Sharma et al. 2016).

Molecular target: EGFR (UniProt P00533)
Sequence (P00533 whole entry, looked up): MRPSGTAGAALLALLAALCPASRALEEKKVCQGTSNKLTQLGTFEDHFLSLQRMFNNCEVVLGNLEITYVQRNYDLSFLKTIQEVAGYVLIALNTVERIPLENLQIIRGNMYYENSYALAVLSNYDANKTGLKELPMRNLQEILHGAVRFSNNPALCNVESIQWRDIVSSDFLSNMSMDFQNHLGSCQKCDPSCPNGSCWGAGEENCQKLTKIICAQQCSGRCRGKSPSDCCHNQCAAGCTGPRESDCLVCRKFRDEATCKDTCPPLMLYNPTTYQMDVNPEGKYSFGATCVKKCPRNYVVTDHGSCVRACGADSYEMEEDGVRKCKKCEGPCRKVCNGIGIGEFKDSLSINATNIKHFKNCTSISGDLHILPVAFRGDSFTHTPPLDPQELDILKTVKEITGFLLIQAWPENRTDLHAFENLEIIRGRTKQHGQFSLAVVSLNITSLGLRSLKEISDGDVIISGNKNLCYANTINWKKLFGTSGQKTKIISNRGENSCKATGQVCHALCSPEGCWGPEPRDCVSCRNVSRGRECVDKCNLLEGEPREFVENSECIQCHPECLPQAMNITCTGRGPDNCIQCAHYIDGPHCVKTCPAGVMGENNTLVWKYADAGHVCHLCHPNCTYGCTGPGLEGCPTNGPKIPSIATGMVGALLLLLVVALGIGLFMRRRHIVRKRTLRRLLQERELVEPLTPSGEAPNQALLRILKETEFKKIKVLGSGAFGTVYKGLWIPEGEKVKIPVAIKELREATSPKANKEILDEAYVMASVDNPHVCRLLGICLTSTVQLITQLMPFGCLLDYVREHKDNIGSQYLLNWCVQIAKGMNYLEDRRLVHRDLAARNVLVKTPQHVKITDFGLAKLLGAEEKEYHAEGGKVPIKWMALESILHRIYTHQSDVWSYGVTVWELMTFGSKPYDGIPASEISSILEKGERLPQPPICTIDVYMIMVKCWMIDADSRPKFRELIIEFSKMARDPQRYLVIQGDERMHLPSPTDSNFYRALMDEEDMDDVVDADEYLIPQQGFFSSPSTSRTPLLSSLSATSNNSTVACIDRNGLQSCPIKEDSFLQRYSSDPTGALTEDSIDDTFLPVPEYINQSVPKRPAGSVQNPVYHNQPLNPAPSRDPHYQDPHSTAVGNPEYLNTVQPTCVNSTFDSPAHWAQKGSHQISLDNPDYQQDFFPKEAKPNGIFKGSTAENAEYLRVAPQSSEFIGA

IC50	SMILES
0.003 to 25 µM	Cc1ccc(Nc2ncnn3c(C)cc(C)c23)cc1O
0.003 to 25 µM	COC(=O)c1cn2ncnc(Nc3ccc4c(c3)C(=O)NC4=O)c2c1C
0.003 to 25 µM	CCOC(=O)c1cn2ncnc(Nc3ccc4c(cnn4Cc4ccccc4)c3)c2c1C(C)C
0.003 to 25 µM	CCc1c(C(=O)NCCN2CCOCC2)cn2ncnc(Nc3ccc4c(cnn4Cc4ccccc4)c3)c12
0.003 to 25 µM	CCc1c(C(=O)N(CCCn2ccnc2)c2ccccn2)cn2ncnc(Nc3ccc4c(cnn4Cc4ccccc4)c3)c12
0.003 to 25 µM	CCOC(=O)c1cn2ncnc(C3C(=O)Nc4ccccc43)c2c1OC (stereo not drawn)
0.003 to 25 µM	CCOC(=O)c1cn2ncnc(Nc3ccc(OC)nc3)c2c1CC
0.003 to 25 µM	CCOC(=O)c1cn2ncnc(Nc3ccc(C)c(NS(C)(=O)=O)c3)c2c1CC
0.003 to 25 µM	COC(=O)c1cn2ncnc(C3C(=O)Nc4ccc(S(=O)(=O)N5CCOCC5)cc43)c2c1C (stereo not drawn)
0.003 to 25 µM	Fc1cc(Cl)ccc1Nc1ncnn2cccc12
0.003 to 25 µM	COC(=O)c1cn2ncnc(C3C(=O)Nc4cc(S(C)(=O)=O)ccc43)c2c1C (stereo not drawn)
0.003 to 25 µM	COC(=O)c1cn2ncnc(Nc3ccc(C(C)C)c(O)c3)c2c1C
0.003 to 25 µM	CCOC(=O)c1cn2ncnc(Nc3ccc(Br)cc3)c2c1CC
0.003 to 25 µM	CCOC(=O)c1cn2ncnc(Nc3ccc4c(cnn4Cc4ccccc4)c3)c2c1CC
0.003 to 25 µM	COCCNC(=O)c1cn2ncnc(C3C(=O)Nc4ccccc43)c2c1C (stereo not drawn)
0.003 to 25 µM	CNS(=O)(=O)c1ccc2c(c1)C(c1ncnn3cc(C(=O)OC)c(C)c13)C(=O)N2 (stereo not drawn)
0.003 to 25 µM	CCOC(=O)c1cn2ncnc(Nc3ccc(O)cc3)c2c1CC
0.003 to 25 µM	COC(=O)c1cn2ncnc(Nc3ccc4c(c3)OCCO4)c2c1C
0.003 to 25 µM	COc1cn2ncnc(C3C(=O)Nc4ccccc43)c2c1OC (stereo not drawn)
0.003 to 25 µM	CCOC(=O)c1cn2ncnc(Nc3ccc(Br)cc3F)c2c1OC
0.003 to 25 µM	CCOC(=O)c1c(CC)c2c(Nc3ccc4c(cnn4Cc4ccccc4)c3)ncnn2c1Br
0.003 to 25 µM	COC(=O)c1cn2ncnc(Nc3ccc4c(c3)NCC4)c2c1C
0.003 to 25 µM	CCOC(=O)c1cn2ncnc(Cl)c2c1CC
0.003 to 25 µM	CCOC(=O)c1cn2ncnc(Nc3ccc(C)c(O)c3)c2c1OCC
0.003 to 25 µM	CCOC(=O)c1cn2ncnc(Cc3ccc(F)c(Cl)c3)c2c1C(C)C

IC50	SMILES
0.003 to 25 µM	CCOC(=O)c1cn2ncnc(NCc3cccc(Br)c3)c2c1CC
0.003 to 25 µM	COC(=O)c1cn2ncnc(N3CCc4ccccc43)c2c1C
0.003 to 25 µM	CCCc1c(C(=O)NCCCN2CCOCC2)cn2ncnc(Nc3ccc(C)c(O)c3)c12
0.003 to 25 µM	Cc1c(C(=O)NCCN2CCOCC2)cn2ncnc(C3C(=O)Nc4ccccc43)c12 (stereo not drawn)
0.003 to 25 µM	CCOC(=O)c1cn2ncnc(Nc3ccc(OC)nc3)c2c1C
0.003 to 25 µM	CCOC(=O)c1cn2ncnc(NCCCn3ccnc3)c2c1CC
0.003 to 25 µM	Cc1c(C(=O)NCCCN2CCOCC2)cn2ncnc(Nc3ccc(Br)c(O)c3)c12
0.003 to 25 µM	COC(=O)c1cn2ncnc(C3C(=O)Nc4cc(C#N)ccc43)c2c1C (stereo not drawn)
0.003 to 25 µM	COC(=O)c1cn2ncnc(Nc3cccc(O)c3C)c2c1C
0.003 to 25 µM	Cc1c(C(=O)NCCCN2CCN(C)CC2)cn2ncnc(C3C(=O)Nc4ccccc43)c12 (stereo not drawn)
0.003 to 25 µM	CCOC(=O)c1cn2ncnc(Nc3ccc(Cl)nc3)c2c1CC
0.003 to 25 µM	Cc1ccc(Nc2ncnn3cc(C(=O)NCCCN4CCOCC4)c(C)c23)cc1O
0.003 to 25 µM	COC(=O)c1cn2ncnc(Nc3ccc(C)c(O)c3)c2c1C
0.003 to 25 µM	CCOC(=O)c1cn2ncnc(NCCc3ccccc3)c2c1CC
0.003 to 25 µM	COC(=O)c1cn2ncnc(Nc3ccc4cc[nH]c4c3)c2c1C
0.003 to 25 µM	COC(=O)c1cn2ncnc(-n3[nH]c4ccccc4c3=O)c2c1C
0.003 to 25 µM	Cc1c(C(=O)NCCCn2nccn2)cn2ncnc(C3C(=O)Nc4ccccc43)c12 (stereo not drawn)
0.003 to 25 µM	Cc1c(C(=O)NCCCN2CCOCC2)cn2ncnc(C3C(=O)Nc4ccc(S(N)(=O)=O)cc43)c12 (stereo not drawn)
0.003 to 25 µM	Cc1c(C(N)=O)cn2ncnc(C3C(=O)Nc4ccccc43)c12 (stereo not drawn)
0.003 to 25 µM	Cc1c(OCCCn2nccn2)cn2ncnc(Nc3cccc(Br)c3)c12
0.003 to 25 µM	CCc1c(C)c2c(Nc3ccc(C)c(O)c3)ncnn2c1C
0.003 to 25 µM	COC(=O)c1cn2ncnc(Oc3cccc(O)c3)c2c1C
0.003 to 25 µM	COc1cn2ncnc(C3C(=O)Nc4ccccc43)c2c1C (stereo not drawn)
0.003 to 25 µM	CCC(C)NC(=O)c1cn2ncnc(C3C(=O)Nc4ccccc43)c2c1C (stereo not drawn)

The remaining lines, values behind:

SMILES	IC50
Cc1ccc(Nc2ncnn3cc(C)c(C)c23)cc1O	0.003 to 25 µM
COC(=O)c1cn2ncnc(Nc3cccc(S(N)(=O)=O)c3)c2c1C	0.003 to 25 µM
Fc1cc(Br)ccc1Nc1ncnn2cccc12	0.003 to 25 µM
COC(=O)c1cn2ncnc(C3C(=O)Nc4ccccc43)c2c1C (stereo not drawn)	0.003 to 25 µM
COC(=O)c1cn2ncnc(C3C(=O)Nc4ccc(S(N)(=O)=O)cc43)c2c1C (stereo not drawn)	0.003 to 25 µM
COC(=O)c1cn2ncnc(C3C(=O)Nc4ncccc43)c2c1C (stereo not drawn)	0.003 to 25 µM
COc1cn2ncnc(Nc3ccc(C)c(O)c3)c2c1OC	0.003 to 25 µM
COC(=O)c1cn2ncnc(Nc3ccc4c(C)cc(=O)[nH]c4c3)c2c1C	0.003 to 25 µM
COCCCNC(=O)c1cn2ncnc(C3C(=O)Nc4ccccc43)c2c1C (stereo not drawn)	0.003 to 25 µM
COC(=O)c1cn2ncnc(Nc3cccc(CO)c3)c2c1C	0.003 to 25 µM
CCc1ccc(Nc2ncnn3cc(C(=O)OC)c(C)c23)cc1O	0.003 to 25 µM
COC(=O)c1cn2ncnc(-n3[nH]c(=O)c4ccccc43)c2c1C	0.003 to 25 µM
CCc1c(COCCN2CCOCC2)cn2ncnc(Nc3ccc4c(cnn4Cc4ccccc4)c3)c12	0.003 to 25 µM
Cc1ccc(Nc2ncnn3cc(N)c(C)c23)cc1O	0.003 to 25 µM
Cc1ccc(Nc2ncnn3c(C)ccc23)cc1O	0.003 to 25 µM
COC(=O)CCc1cn2ncnc(C3C(=O)Nc4ccccc43)c2c1C (stereo not drawn)	0.003 to 25 µM
CCc1c(C(=O)OC)cn2ncnc(Nc3ccc(OC)nc3)c12	0.003 to 25 µM
CCOC(=O)c1cn2ncnc(Nc3ccc(C)c(N)c3)c2c1CC	0.003 to 25 µM
CCc1c(C(=O)NCCN2CCCC2)cn2nc(C)nc(Nc3ccc(OC)nc3)c12	0.003 to 25 µM
CCOC(=O)c1cn2ncnc(Nc3ccc(C)c(O)c3)c2c1Cc1ccccc1	0.003 to 25 µM
Cc1c(C(=O)NCCCN2CCOCC2)cn2ncnc(Nc3ccc(Br)cc3)c12	0.003 to 25 µM
Cc1c(C(=O)O)cn2ncnc(C3C(=O)Nc4ccccc43)c12 (stereo not drawn)	0.003 to 25 µM

SMILES	IC50
CCc1nc(C2C(=O)Nc3ccccc32)c2c(C)c(C(=O)NCCCN(C)C)cn2n1 (stereo not drawn)	0.003 to 25 µM
CCOC(=O)c1cn2ncnc(Nc3ccc(OC)cc3)c2c1CC	0.003 to 25 µM
COC(=O)c1cn2ncnc(Nc3ccc4c(cnn4Cc4ccccc4)c3)c2c1C	0.003 to 25 µM
CCOC(=O)c1cn2ncnc(Nc3ccc(C)c(O)c3)c2c1C(C)C	0.003 to 25 µM
COC(=O)c1cn2ncnc(Nc3cc(O)c4ccccc4c3)c2c1C	0.003 to 25 µM
CCCCc1ccc(Nc2ncnn3cc(C(=O)OC)c(C)c23)cc1O	0.003 to 25 µM
CCCc1c(C(=O)OCC)cn2ncnc(Nc3ccc4c(cnn4Cc4ccccc4)c3)c12	0.003 to 25 µM
Cc1c(C(=O)NCCCN2CCOCC2)cn2ncnc(C3C(=O)Nc4cc(F)ccc43)c12 (stereo not drawn)	0.003 to 25 µM
Cc1ccc(Nc2nc(N(C)C)nn3cccc23)cc1O	0.003 to 25 µM
COC(=O)c1cn2ncnc(Nc3ccc4cn[nH]c4c3)c2c1C	0.003 to 25 µM
COC(=O)c1cn2ncnc(-n3[nH]c(C)cc3=O)c2c1C	0.003 to 25 µM
Cc1c(C(=O)NCCCCN2CCOCC2)cn2ncnc(C3C(=O)Nc4ccccc43)c12 (stereo not drawn)	0.003 to 25 µM
COC(=O)c1cn2ncnc(Nc3ccc(C)c(N)c3)c2c1C	0.003 to 25 µM
Cc1c(C(=O)NCCCn2ccnc2C)cn2ncnc(C3C(=O)Nc4ccccc43)c12 (stereo not drawn)	0.003 to 25 µM
CCc1c(C(=O)O)cn2ncnc(Nc3ccc(OC)nc3)c12	0.003 to 25 µM
COC(=O)c1cn2ncnc(Nc3cccc(NS(C)(=O)=O)c3)c2c1C	0.003 to 25 µM
CCOC(=O)c1cn2ncnc(C3C(=O)Nc4ccccc43)c2c1C(=O)OCC (stereo not drawn)	0.003 to 25 µM
Cc1nc(C2C(=O)Nc3ccccc32)c2c(C)c(C(=O)NCCN3CCCC3)cn2n1 (stereo not drawn)	0.003 to 25 µM
COC(=O)c1cn2ncnc(C3C(=O)Nc4ccc(S(=O)(=O)NCCN5CCCC5)cc43)c2c1C (stereo not drawn)	0.003 to 25 µM
Cc1ccc(Nc2ncnn3cc(Cn4cncn4)c(C)c23)cc1O	0.003 to 25 µM
COC(=O)c1cn2ncnc(C3C(=O)Nc4cc(C(F)(F)F)ccc43)c2c1C (stereo not drawn)	0.003 to 25 µM
COC(=O)c1cn2ncnc(Nc3ccc(OC)c(O)c3)c2c1C	0.003 to 25 µM

SMILES	IC50
Cc1ccn2ncnc(Nc3ccc(Br)cc3F)c12	0.003 to 25 µM
COC(=O)c1cn2ncnc(Nc3ccc(C)c(OC)c3)c2c1C	0.003 to 25 µM
COC(=O)c1cn2ncnc(C3C(=O)Nc4ccc(S(=O)(=O)N(C)C)cc43)c2c1C (stereo not drawn)	0.003 to 25 µM
Cc1c(C(=O)NCCCN2CCOCC2)cn2ncnc(C3C(=O)Nc4ccc(F)cc43)c12 (stereo not drawn)	0.003 to 25 µM
Cc1c(NS(C)(=O)=O)cn2ncnc(C3C(=O)Nc4ccccc43)c12 (stereo not drawn)	0.003 to 25 µM
COC(=O)c1cn2ncnc(C3C(=O)Nc4ccc(S(=O)(=O)NCCN5CCOCC5)cc43)c2c1C (stereo not drawn)	0.003 to 25 µM
Clc1ccc(Nc2ncnn3c(Br)ccc23)cc1	0.003 to 25 µM
CCc1c(C(=O)OC)cn2ncnc(Nc3ccc4c(cnn4Cc4ccccc4)c3)c12	0.003 to 25 µM
Cc1c(C(=O)CCN2CCOCC2)cn2ncnc(C3C(=O)Nc4ccccc43)c12 (stereo not drawn)	0.003 to 25 µM
COC(=O)c1cn2ncnc(-c3c(O)[nH]c4cc(Br)ccc34)c2c1C	0.003 to 25 µM
CCc1c(CO)cn2ncnc(Nc3ccc4c(cnn4Cc4ccccc4)c3)c12	0.003 to 25 µM
COC(=O)c1cn2ncnc(Nc3cccc(S(=O)(=O)O)c3)c2c1C	0.003 to 25 µM
CCCc1c(C(=O)NCCCN2CCCC2)cn2ncnc(Nc3ccc(C)c(O)c3)c12	0.003 to 25 µM
COC(=O)c1cn2ncnc(Nc3ccc(Br)c(C)c3)c2c1C	0.003 to 25 µM
COc1c(C(=O)N(C)CCN2CCCC2)cn2ncnc(Nc3ccc(Br)cc3F)c12	0.003 to 25 µM
CCc1c(NC(=O)OCc2ccccc2)cn2ncnc(Nc3ccc(OC)nc3)c12	0.003 to 25 µM
COC(=O)c1cn2ncnc(C3C(=O)Nc4nc(C)ncc43)c2c1C (stereo not drawn)	0.003 to 25 µM
COC(=O)c1cn2ncnc(Nc3ccc(C)c(S(N)(=O)=O)c3)c2c1C	0.003 to 25 µM
COC(=O)c1cn2ncnc(C3C(=O)Nc4ccc(NS(C)(=O)=O)cc43)c2c1C (stereo not drawn)	0.003 to 25 µM
CCc1c(C(=O)NCCN2CCCC2)cn2ncnc(Nc3ccc(OC)nc3)c12	0.003 to 25 µM
